# Patent publication US20050244359A1, “Topical regulation of triglyceride metabolism” (priority 2004, published 2005)
# Where “and” joins values, the source holds several entries; their conditions need not be identical. Equal values may be shown once.
# Test system: epidermal equivalents
# Experiment: Triglyceride production in living skin samples (epidermal equivalents, MatTek), HPTLC analysis
# Type: cell-based
# Settings: for net intensity (HPTLC, triglycerides): about 0.1 percent fatty acid, epidermal equivalents cultured for three days, triglycerides extracted in chloroform/methanol (2:1)
# Method: A set of living skin samples, epidermal equivalents, obtained from MatTek, is tested with a sample of about 0.1 percent palmitoleic acid and about 0.1 percent oleic acid. A media is prepared of a transwell membrane at the air/liquid interface and is cultured for three days. At the end of the incubation period, each skin square is homogenized and its triglycerides extracted in chloroform/methanol (2:1). This is followed by HPTLC analysis. […] After one day of application it is surprising to find the increase in triglyceride concentration in the epidermal equivalents treated with palmitoleic acid. […] The net intensity of oleic acid is 859. In contrast, palmitoleic acid has a net intensity of 1324 and 1212, an average of 1268 net intensity.
SMILES,"net intensity (HPTLC, triglycerides)","average net intensity (HPTLC, triglycerides) (about 0.1 percent, average of two values)","increase in triglyceride production (about 0.1 percent, epidermal equivalents, HPTLC)","effect on triglyceride production (in words) (epidermal equivalents, HPTLC)"
CCCCCC/C=C\CCCCCCCC(=O)O [palmitoleic acid],1324 and 1212,1268,~400%,time and dose-dependent increase in triglyceride production
"CCCCCCCC/C=C\CCCCCCCC(=O)O [oleic acid, reference compound]",859,–,–,little effect
